Data on ten compounds can be found in article PMC4858447 (ACS chemical biology, 2015).

Where two headings read alike, the source gives them in different places.

One data set deals with 5FW-BPTF bromodomain (Homo sapiens, UniProt Q12830). Put plainly: Protein-observed 19F NMR. It counts as binding. Particulars: for BPTF 19F NMR: 100 μM compound, 50 μM Brd4 and BPTF, 1% DMSO; for selectivity between BPTF and Brd4 by PrOF NMR (in words): dual screen.
The target of data set [1] is 5FW-Brd4 (first bromodomain of Brd4) (Homo sapiens, UniProt O60885). Put plainly: Protein-observed 19F NMR. It counts as binding. The note with it: for binding to Brd4 (in words): PrOF NMR; for Brd4 19F NMR: 100 μM compound, 50 μM Brd4 and BPTF, 1% DMSO.
Data set [2] has as its target T1, Brd4 (Homo sapiens, UniProt O60885). Kind of data set: Fluorescence anisotropy competition against bound BODIPY-BI2536. The class given is binding.
Data set [3] deals with T1, Brd4. Kind of data set: Differential scanning fluorimetry. It counts as binding. Particulars: DSF, 100 μM inhibitor, 4 μM Brd4.
The next data set can be described thus: Cell viability assay. It counts as cell-based, human. Particulars: human, HEK 293T cells.
The test system of a further data set is HEK 293T cells. Kind of data set: Cell viability assay. The class given is cell-based, human. The note with it: 24 hours at 3 and 10 μM.
In data set [4] the test system is BPTF-regulatory region upstream of Mobkl3 promoter in Eph4 cells. Kind of data set: pGL3_Mobkl3p luciferase reporter assay. The class given is cell-based, mouse. The note with it: 5 μM for 12 hours, pGL3_Mobkl3p vector.
For data set [5] the following is noted: read-out: EC50 in five cellular assays; ChEMBL search; targets unknown; cited from earlier work.
The next data set deals with hepatocytes. The note with it: 10 μM compound; cited from earlier work.

On to `O=C(Nc1ccc2c(c1)OCO2)NC1CCN(c2ccnc(Nc3ccc(F)cc3)n2)C1` (stereo not drawn) [GSK1379724A], for which the “binding to BPTF (in words)” value on 5FW-BPTF bromodomain (PrOF NMR) is listed as “unable to bind”. For the same compound, the “binding to Brd4 (in words)” value in data set [1] is recorded as “unable to bind”.

`CCc1ccc(Oc2nccc(-c3c(-c4ccc(F)cc4)ncn3C3CCNCC3)n2)cc1` [SB-242719]: the “BPTF 19F NMR” value on 5FW-BPTF bromodomain was “+ (a resonance from the protein in question has been perturbed by 1 standard deviation in either chemical shift or linewidth)”. Moreover, in data set [1], the “Brd4 19F NMR” value is on record as “+++”. The compound also showed an inhibition constant Ki at Brd4 [2] of 13000 ± 3000 nM. For the same compound, the fold weaker affinity on Brd4 [2] (relative to SB-284851-BT (1)) was determined as 40 fold.

Turning to `CN(C)CCOc1ccc(-c2nc(-c3ccncc3)c(-c3ccc4c(c3)CC/C4=N\O)[nH]2)cc1` [SB-590885-AAE], on 5FW-BPTF bromodomain, the “BPTF 19F NMR” value is given as “-”. In addition, in data set [1], the “Brd4 19F NMR” value is reported as “+++”. Further, the “Brd4 ΔTm” value on Brd4 [3] turned out to be 5.1 ± 0.4 °C. In addition, the inhibition constant (Ki) on Brd4 [2] (read-out: Brd4 FP Ki, competition with BODIPY-BI2536, 156 nM Brd4) was determined as 400 ± 230 nM.

Regarding `COC(=O)c1cccc(NC(=O)NC2CCN(c3ccnc(Nc4ccc(F)cc4)n3)C2)c1` (stereo not drawn) [AU1], on 5FW-BPTF bromodomain, the “BPTF 19F NMR” value is on record as “+++”. Besides, in [1], the “Brd4 19F NMR” value is recorded as “-” and the “binding to Brd4 (in words)” value is listed as “No binding is detected”. This compound registered a viability at 48 h, 10 µM in the data set “Cell viability assay” of 76%. The “cellular toxicity against HEK 293T cells” value in the data set with HEK 293T cells is given as “no cellular toxicity”. In [4], the “loss of luciferase activity” value is ~ 4 fold. For the same compound, the EC50 in data set [5] was 500 nM. In the data set with hepatocytes, the “cellular toxicity in hepatocytes” value is recorded as “did not detect cellular toxicity”.

For the compound `COC(=O)c1cccc(NC(=O)NC2CCN(c3ccnc(Nc4ccc(OC)cc4)n3)C2)c1` (stereo not drawn) [GSK1379746A], on 5FW-BPTF bromodomain, the “BPTF 19F NMR” value is on record as “+++”; the “selectivity between BPTF and Brd4 by PrOF NMR (in words)” value (“selectivity between BPTF and Brd4” below) is “completely selective for BPTF over Brd4”. The “Brd4 19F NMR” value in data set [1] is “-”.

On to `Cc1cnc(Nc2ccc(OCCN3CCCC3)cc2)nc1Nc1cccc(S(=O)(=O)NC(C)(C)C)c1` [TG-101348, reference compound], for which, at 5FW-BPTF bromodomain, the “selectivity between BPTF and Brd4” value is recorded as “selective for Brd4 over BPTF”.

With `CCn1c(-c2nonc2N)nc2c(C#CCN)ncc(OCCCN)c21` [GSK561866B], on 5FW-BPTF bromodomain, the “BPTF 19F NMR” value is recorded as “++ (a resonance from the protein in question has been perturbed by 2 standard deviations in either chemical shift or linewidth)”; the “selectivity between BPTF and Brd4” value is “highly selective for BPTF”. For the same compound, the “Brd4 19F NMR” value in data set [1] is “-”.

On to `CCn1c(-c2nonc2N)nc2c(-c3ccccc3)ncc(OCCCN)c21` [GSK260205A], for which the “BPTF 19F NMR” value at 5FW-BPTF bromodomain is given as “+++”. Further, in data set [1], the “Brd4 19F NMR” value is “+++”.

With `Oc1ccc(-c2nc(-c3ccncc3)c(-c3ccc(F)cc3)[nH]2)cc1` [SB-202190, reference compound], the “selectivity between BPTF and Brd4” value on 5FW-BPTF bromodomain is “selective for Brd4 over BPTF”.

In the case of `COC(=O)c1cccc(NC(=O)NC2CCN(c3ccnc(Nc4cc(OC)c(OC)c(OC)c4)n3)C2)c1` (stereo not drawn) [GSK1379767A], the “BPTF 19F NMR” value on 5FW-BPTF bromodomain was “+++”. The “Brd4 19F NMR” value in [1] was “+++”.
